From patent EP0293900B1, “Phenolic thioethers, sulfoxides, and disulfides as inhibitors of 5-lipoxygenase” (G.D. Searle & Co., priority 1987, dated 1988)

Each compound was assayed against T1, 5-lipoxygenase (Rattus norvegicus, UniProt P12527) (assay: Inhibition of 5-lipoxygenase, in vitro (5-HETE synthesis from [1-14C]-arachidonic acid, RBL-1 supernatant)). Conditions: 100,000 x g supernatant of Rat Basophilic Leukemia Cell Homogenate (RBL-1); active = 30% or more inhibition of 5-HETE synthesis; initial screening 1 x 10⁻⁴M.
T1 construct: The 100,000 x g supernatant fraction of Rat Basophilic Leukemia Cell Homogenate (RBL-1) serves as a 5-lipoxygenase enzyme source; endogenous in cells; host or cells: RBL-1 (rat basophilic leukemia) cells, 100,000 x g supernatant of the homogenate
T1 sequence (P12527 1-673): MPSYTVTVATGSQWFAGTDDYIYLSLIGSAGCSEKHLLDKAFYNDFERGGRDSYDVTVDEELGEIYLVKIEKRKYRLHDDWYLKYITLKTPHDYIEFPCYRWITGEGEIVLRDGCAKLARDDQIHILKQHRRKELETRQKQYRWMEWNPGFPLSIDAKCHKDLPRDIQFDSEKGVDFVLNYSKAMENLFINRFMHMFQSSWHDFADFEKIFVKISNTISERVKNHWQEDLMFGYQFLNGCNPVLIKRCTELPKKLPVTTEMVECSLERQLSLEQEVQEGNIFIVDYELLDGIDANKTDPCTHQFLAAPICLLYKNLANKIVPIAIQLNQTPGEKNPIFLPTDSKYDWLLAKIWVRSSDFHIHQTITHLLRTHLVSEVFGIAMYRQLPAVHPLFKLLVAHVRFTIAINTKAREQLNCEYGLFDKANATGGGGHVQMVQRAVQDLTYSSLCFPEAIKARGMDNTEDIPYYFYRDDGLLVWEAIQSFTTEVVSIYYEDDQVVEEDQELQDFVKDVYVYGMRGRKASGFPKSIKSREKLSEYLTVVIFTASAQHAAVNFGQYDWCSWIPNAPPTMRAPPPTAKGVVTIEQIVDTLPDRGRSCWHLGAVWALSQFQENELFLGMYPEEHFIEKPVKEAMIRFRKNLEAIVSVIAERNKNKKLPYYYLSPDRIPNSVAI
Format: biochemical
Procedure: The compounds of the invention are evaluated with respect to 5-lipoxygenase inhibition according to the following assay procedure.
Inhibition of 5-lipoxygenase, in vitro: anti-inflammatory, anti-allergy activities.
The 100,000 x g supernatant fraction of Rat Basophilic Leukemia Cell Homogenate (RBL-1) serves as a 5-lipoxygenase enzyme source. The enzyme is incubated with [1-¹⁴C)-arachidonic acid and Ca⁺⁺ in the presence and absence of test compound. The product of 5-lipoxygenase, 5-hydroxyeicosatetraenoic acid (5-HETE), is separated by thin-layer chromatography and measured by radioactivity. A compound inhibiting 5-HETE synthesis by 30% or more is considered active at that concentration. Initial screening doses are 1 x 10⁻⁴M.

Row | 5-Lipoxygenase Inhibition, in vitro. IC₅₀ | Compound
1 | Inactive | COC(=O)CCS(=O)(=O)c1cc(C(C)(C)C)c(O)c(C(C)(C)C)c1 [Example 11, Methyl 3-[[3,5-bis(1,1 dimethylethyl)-4-hydroxyphenyl]sulfonyl]propanoate]

Same assay, conditions: 100,000 x g supernatant of Rat Basophilic Leukemia Cell Homogenate (RBL-1); active = 30% or more inhibition of 5-HETE synthesis; initial screening 1 x 10⁻⁴M; read-out: 5-Lipoxygenase Inhibition, in vitro. IC₅₀

Row | Compound | IC50
2 | COC(=O)CC[S+]([O-])c1cc(C(C)(C)C)c(O)c(C(C)(C)C)c1 (centres unmarked) [Example 10, Methyl 3-[[3,5-bis(1,1-dimethylethyl)-4-hydroxyphenyl]sulfinyl]propanoate] | 16.5 µM
3 | CCOC(=O)C(C)Sc1cc(C(C)(C)C)c(O)c(C(C)(C)C)c1 (centres unmarked) [Example 5, Ethyl 2-[[3,5-bis(1,1-dimethylethyl)-4-hydroxyphenyl]thio]propanoate] | 0.39 µM
4 | CCCC(Sc1cc(C(C)(C)C)c(O)c(C(C)(C)C)c1)C(=O)O (centres unmarked) [Example 8] | 6.6 µM
5 | COC(=O)CSSc1cc(C(C)(C)C)c(O)c(C(C)(C)C)c1 [Example 14, Methyl [[3,5-bis(1,1-dimethylethyl)-4-hydroxyphenyl]dithio]acetate] | 0.4 µM
6 | CCCC(Sc1cc(C(C)(C)C)c(O)c(C(C)(C)C)c1)C(=O)OCC (centres unmarked) [Example 7, Ethyl 2-[[3,5-bis(1,1-dimethylethyl)-4-hydroxyphenyl]thio]pentanoate] | 1.3 µM
7 | CCOC(=O)C=CCCSc1cc(C(C)(C)C)c(O)c(C(C)(C)C)c1 [Example 13, Ethyl 5-[[3,5-bis(1,1-dimethylethyl)-4-hydroxyphenyl]thio]-2-pentenoate] | 0.26 µM

Continued, values first:

Row | IC50 | Compound
8 | 0.38 µM | COC(=O)CCSc1cc(C(C)(C)C)c(O)c(C(C)(C)C)c1 [Example 9, Methyl 3-[[3,5-bis(1,1-dimethylethyl)-4-hydroxyphenol]thio]propanoate]
9 | 3.4 µM | CC(C)(C)c1cc(SCCC(=O)O)cc(C(C)(C)C)c1O [Example 12, 3-[[3,5-bis(1,1-dimethylethyl)-4-hydroxyphenyl]thio]propanic acid]
10 | 1.1 µM | CC(C)(C)c1cc(SCCCCC(=O)O)cc(C(C)(C)C)c1O [Example 4, 5-[[3,5-bis(1,1-dimethylethyl)-4-hydroxyphenyl]thio]pentanoic acid]
11 | 1 µM | CC(C)(C)c1cc(SCCCC(=O)O)cc(C(C)(C)C)c1O [Example 3, 4-[[3,5-bis(1,1-dimethylethyl)-4-hydroxyphenyl]thio] butanoic acid]
